Values of other authors in US12239707B2, “Photodynamic compositions and methods of use” (MT RESEARCH, LLC, priority 2018, dated 2025).

Conditions: taken orally; 95% remains intraluminal

fraction of nintedanib absorbed: 5%
SMILES: COC(=O)c1ccc2c(c1)NC(=O)/C2=C(\Nc1ccc(N(C)C(=O)CN2CCN(C)CC2)cc1)c1ccccc1 [nintedanib]
